This note sets out measurements from ChEMBL document CHEMBL5724914, “Linking interpersonal differences in gut microbiota composition and drug biotransformation activity” (2024).

Structures are written as SMILES.

Series [1] is described as follows: The drug is tested on Z-030 corresponding to mouse gut metagenome with ENA study accession number: PRJEB37062 and ENA sample accession number: ERS12561829 for biotransformation under anaerobic condition. The drug concentrations were measured over 9 timepoints collected between 0 and 24 hours of incubation by liquid-chromatography-coupled mass spectrometry (LC–MS). Conditions: 2 µM.

Series [2] in a line: The drug is tested on Z-029 corresponding to rat gut metagenome with ENA study accession number: PRJEB37062 and ENA sample accession number: ERS12561828 for biotransformation under anaerobic condition. The drug concentrations were measured over 9 timepoints collected between 0 and 24 hours of incubation by liquid-chromatography-coupled mass spectrometry (LC–MS). Particulars: 2 µM.

The nature of series [3]: The drug is tested on Z-021 corresponding to metagenome with ENA study accession number: PRJEB37062 and ENA sample accession number: ERS12561820 for biotransformation under anaerobic condition. The drug concentrations were measured over 9 timepoints collected between 0 and 24 hours of incubation by liquid-chromatography-coupled mass spectrometry (LC–MS). Particulars: 2 µM.

Series [4] in a line: The drug is tested on Z-016 corresponding to mouse gut metagenome with ENA study accession number: PRJEB37062 and ENA sample accession number: ERS12561815 for biotransformation under anaerobic condition. The drug concentrations were measured over 9 timepoints collected between 0 and 24 hours of incubation by liquid-chromatography-coupled mass spectrometry (LC–MS). Particulars: 2 µM.

Series [5] in a line: The drug is tested on Z-013 corresponding to rabbit gut metagenome with ENA study accession number: PRJEB37062 and ENA sample accession number: ERS12561813 for biotransformation under anaerobic condition. The drug concentrations were measured over 9 timepoints collected between 0 and 24 hours of incubation by liquid-chromatography-coupled mass spectrometry (LC–MS). Conditions: 2 µM.

Series [6] in a line: The drug is tested on WLS-240 corresponding to human gut metagenome with ENA study accession number: PRJEB37062 and ENA sample accession number: ERS12561773 for biotransformation under anaerobic condition. The drug concentrations were measured over 9 timepoints collected between 0 and 24 hours of incubation by liquid-chromatography-coupled mass spectrometry (LC–MS). Conditions: 2 µM.

The nature of series [7]: The drug is tested on WLS-170 corresponding to human gut metagenome with ENA study accession number: PRJEB37062 and ENA sample accession number: ERS12561762 for biotransformation under anaerobic condition. The drug concentrations were measured over 9 timepoints collected between 0 and 24 hours of incubation by liquid-chromatography-coupled mass spectrometry (LC–MS). Conditions: 2 µM.

The conditions of series [8]: human gut metagenome, 24 h, 2 µM.
The conditions of series [9]: human gut metagenome, 24 h, 2 µM. The source holds these as a separate data set.
For series [10] the following is noted: human gut metagenome, 24 h, 2 µM. This is another data set of the same source.
The conditions of series [11]: human gut metagenome, 24 h, 2 µM. The source holds these as a separate data set.
The conditions of series [12]: human gut metagenome, 24 h, 2 µM. The source holds these as a separate data set.
The conditions of series [13]: human gut metagenome, 24 h, 2 µM. This is another data set of the same source.
The conditions of series [14]: human gut metagenome, 24 h, 2 µM. The source holds these as a separate data set.
The conditions of series [15]: human gut metagenome, 24 h, 2 µM. The source holds these as a separate data set.
The conditions of series [16]: human gut metagenome, 24 h, 2 µM. This is another data set of the same source.
Series [17] can be described thus: The drug is tested on Z-010 corresponding to metagenome with ENA study accession number: PRJEB37062 and ENA sample accession number: ERS12561810 for biotransformation under anaerobic condition. The drug concentrations were measured over 9 timepoints collected between 0 and 24 hours of incubation by liquid-chromatography-coupled mass spectrometry (LC–MS). Particulars: 2 µM.

Series [18] is described as follows: The drug is tested on Z-006 corresponding to mouse gut metagenome with ENA study accession number: PRJEB37062 and ENA sample accession number: ERS12561806 for biotransformation under anaerobic condition. The drug concentrations were measured over 9 timepoints collected between 0 and 24 hours of incubation by liquid-chromatography-coupled mass spectrometry (LC–MS). Particulars: 2 µM.

The nature of series [19]: The drug is tested on Z-004 corresponding to metagenome with ENA study accession number: PRJEB37062 and ENA sample accession number: ERS12561804 for biotransformation under anaerobic condition. The drug concentrations were measured over 9 timepoints collected between 0 and 24 hours of incubation by liquid-chromatography-coupled mass spectrometry (LC–MS). Conditions: 2 µM.

A short description of series [20]: The drug is tested on WLS-082 corresponding to human gut metagenome with ENA study accession number: PRJEB37062 and ENA sample accession number: ERS12561751 for biotransformation under anaerobic condition. The drug concentrations were measured over 9 timepoints collected between 0 and 24 hours of incubation by liquid-chromatography-coupled mass spectrometry (LC–MS). Conditions: 2 µM.
Further: call rule not given here.

Turning to `CN1CCc2cccc3c2[C@H]1Cc1ccc(O)c(O)c1-3` [APOMORPHINE], the “Bacterial Biotransformation” value was “Compound NOT metabolized” in series [1]; “Compound NOT metabolized” in [2]; “Compound NOT metabolized” in [3]; “Compound NOT metabolized” in series [4]; “Compound metabolized” in series [5]; “Compound NOT metabolized” in series [6]. Further, the “Bacterial Biotransformation” value in series [7], in [8], in [9], in [10], in series [11] and in series [12] was “Compound NOT metabolized” throughout. In addition, the “Bacterial Biotransformation” value in series [13], in series [14], in [15] and in series [16] was “Compound NOT metabolized” in each case.
For `O=C1[C@H](CC[C@H](O)c2ccc(F)cc2)[C@@H](c2ccc(O)cc2)N1c1ccc(F)cc1` [EZETIMIBE], the “Bacterial Biotransformation” value in series [1], in series [2], in series [4], in [5], in series [17] and in series [18] was “Compound NOT metabolized” in each case. Also, the “Bacterial Biotransformation” value in series [19] is “Compound NOT metabolized”; in [6], “Compound metabolized”; in series [7], “Compound metabolized”; in [20] it was “Compound metabolized”; in [8] it was “Compound metabolized”; in [9], “Compound NOT metabolized”. Also, the “Bacterial Biotransformation” value in series [10] was “Compound NOT metabolized”; in [11] it was “Compound metabolized”; in [12] it was “Compound metabolized”; in series [13], “Compound metabolized”; in [14], “Compound NOT metabolized”; in series [15], “Compound NOT metabolized”. In addition, the “Bacterial Biotransformation” value in [16] was “Compound metabolized”.
In the case of `CN1C(=O)CC(C)(c2ccccc2)C1=O` (stereo not given) [METHSUXIMIDE], the “Bacterial Biotransformation” value in [3] is given as “Compound metabolized”; in [4], “Compound NOT metabolized”; in series [5], “Compound NOT metabolized”; in [17] it was “Compound NOT metabolized”; in series [18], “Compound NOT metabolized”; in series [19], “Compound NOT metabolized”. Also, the “Bacterial Biotransformation” value in series [6] was “Compound metabolized”; in [7], “Compound metabolized”; in series [20] it was “Compound NOT metabolized”; in [8], “Compound NOT metabolized”; in [9], “Compound NOT metabolized”; in [10], “Compound NOT metabolized”. Besides, the “Bacterial Biotransformation” value is “Compound metabolized” in series [11]; “Compound metabolized” in [12]; “Compound NOT metabolized” in series [13]; “Compound NOT metabolized” in series [14]; “Compound NOT metabolized” in series [15]; “Compound NOT metabolized” in series [16].
For the compound `COc1ccccc1N1CCN(CC(O)COc2cccc3ccccc23)CC1` (stereo not given) [NAFTOPIDIL], the “Bacterial Biotransformation” value in series [3] was “Compound metabolized”; in series [4] it was “Compound NOT metabolized”; in series [5], “Compound NOT metabolized”; in series [17], “Compound NOT metabolized”; in series [18] it was “Compound NOT metabolized”; in series [19] it was “Compound NOT metabolized”. The “Bacterial Biotransformation” value in [6], in series [7], in series [20], in series [8], in [9] and in [10] was “Compound NOT metabolized” each time. The “Bacterial Biotransformation” value in series [11], in series [12], in [13], in series [14], in series [15] and in [16] was “Compound NOT metabolized” each time.
With `Cc1nc2n(c(=O)c1CCN1CCC(c3noc4cc(F)ccc34)CC1)CCCC2O` (stereo not given) [PALIPERIDONE], the “Bacterial Biotransformation” value in series [1] is reported as “Compound metabolized”; in series [3], “Compound metabolized”; in [4] it was “Compound NOT metabolized”; in series [5], “Compound NOT metabolized”; in series [17] it was “Compound NOT metabolized”; in [6], “Compound metabolized”. The “Bacterial Biotransformation” value was “Compound NOT metabolized” in series [7]; “Compound metabolized” in series [8]; “Compound metabolized” in series [9]; “Compound metabolized” in series [10]; “Compound metabolized” in series [11]; “Compound metabolized” in [12]. Also, the “Bacterial Biotransformation” value in series [13] is reported as “Compound NOT metabolized”; in series [14] it was “Compound metabolized”; in [15], “Compound NOT metabolized”; in series [16] it was “Compound metabolized”.
Consider `Cc1ccc(/C(=C\CN2CCCC2)c2ccccn2)cc1` [TRIPROLIDINE], for which the “Bacterial Biotransformation” value in series [3], in [4], in series [5], in [17], in [18] and in [19] was “Compound NOT metabolized” in each case. Besides, the “Bacterial Biotransformation” value is “Compound NOT metabolized” in series [6]; “Compound metabolized” in [7]; “Compound NOT metabolized” in [20]; “Compound NOT metabolized” in series [8]; “Compound NOT metabolized” in [9]; “Compound NOT metabolized” in series [10]. Also, the “Bacterial Biotransformation” value in series [11], in series [12], in [13], in series [14], in [15] and in series [16] was “Compound NOT metabolized” throughout.
